The results in this text go back to patent US20250382274A1, “COMPOSITIONS AND METHODS FOR THE TREATMENT OF PARKINSON'S AND GAUCHER DISEASE” (CHILDREN'S HOSPITAL MEDICAL CENTER, priority 2024, published 2025).

Assay [1] concerns the target T1, GCase (purified enzyme, Velaglucerase alfa, VPRIV) (Homo sapiens, UniProt P04062).
T1 construct: purchased Shire Human Genetic Therapies, Cambridge, MA
T1 sequence (P04062 40-536): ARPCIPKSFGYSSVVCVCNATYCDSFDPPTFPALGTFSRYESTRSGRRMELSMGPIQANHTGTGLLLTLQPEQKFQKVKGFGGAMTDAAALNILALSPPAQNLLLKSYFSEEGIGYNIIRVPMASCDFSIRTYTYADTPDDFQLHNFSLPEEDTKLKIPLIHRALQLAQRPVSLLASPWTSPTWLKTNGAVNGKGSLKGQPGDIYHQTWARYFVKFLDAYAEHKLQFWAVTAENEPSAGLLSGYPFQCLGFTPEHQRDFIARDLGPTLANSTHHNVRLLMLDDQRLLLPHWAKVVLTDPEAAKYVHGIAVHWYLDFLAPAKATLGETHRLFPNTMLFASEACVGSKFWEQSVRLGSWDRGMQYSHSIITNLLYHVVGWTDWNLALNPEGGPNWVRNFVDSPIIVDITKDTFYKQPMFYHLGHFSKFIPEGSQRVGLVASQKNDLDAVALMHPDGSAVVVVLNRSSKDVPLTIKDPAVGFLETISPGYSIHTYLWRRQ
Description: GCase AC50 enzyme activity assay. It counts as biochemical. Particulars: pH 5.6, 4-MuGlu substrate, compounds 0-40 μM. The method, then: An in vitro enzyme assay was performed through a dose response curve of Compounds (0-40 μM) with purified enzyme (Velaglucerase alfa, VPRIV®, Shire Human Genetic Therapies, Cambridge, MA) in citric phosphate [0.025 mM] buffer (pH 5.6) where 4-MuGlu [4 mM] was the substrate. Compounds were pre-incubated with the enzyme for 40 minutes at room temperature prior to substrate addition, and then incubated at 37° C. for 1 hour. AC50 represents the concentration of a Compound that produces 50% of its maximal response in the in vitro GCase activity assay.
(§1) GCase activities were determined fluorometrically with 4-MuGlu. The relative fluorescence unit (RFU) of 4-MuGlu standard curve is generated with the plate reader (M5, Molecular Devise) as 1 n mole=56500 RFU. The human mutant Gaucher fibroblasts were purchased from Coriell Institute (Camden, NJ): N370/ΔGG (Cat #: GM00852) and L444P/L444P (cat #: GM00877)

For assay [2], the target named is T2, GCase in healthy human fibroblasts (Homo sapiens, UniProt P04062).
T2 construct: Healthy human fibroblasts (GCase cell); endogenous in cells; host or cells: healthy human fibroblasts
T2 sequence (P04062 40-536): T1 sequence (P04062 40-536)
The assay can be described thus: EC50 cell-based assay for GCase, healthy human fibroblasts (GCase cell). Particulars: 5 days compound treatment (0-20 μM). As for the experimental part: In cell assays, GCase activity measurements were carried out on harvested cell pellets on the 5th day of Compound treatment. Healthy human fibroblasts (GCase cell), mutant N370/ΔGG (GCase N370S) or L444P/L444P (GCase L444P) were incubated with the Compound (0-20 μM) for 5 days with 15% fetal bovine serum (FBS) in Dulbecco's Modified Eagle Medium (DMEM) in 100 mm culture dishes. Fresh Medium with Compound were replaced every other day. On the 5th day of Compound treatment, harvested cell pellets were lysed with 1% Na-taurocholate (Tc) and 1% Triton X-100 (Tx), and mixed with the reaction buffer which contained 0.025 mM Citric phosphate buffer (pH 5.6), 0.25% Tc/Tx and 4 mM 4-MuGlu, then incubated at 37° C. for 1 hour. EC50 represents the concentration of a Compound that produces 50% of its maximal response in the cell-based GCase activity assay.
as §1

Broadly, the AC50 is the concentration giving half of the maximal activity seen. One may read the EC50 as the concentration at which the effect is half-maximal. High values mean lower potency in that assay, low ones higher potency in that assay. For `CN(CC1CCCO1)C(=O)c1ccccc1OCC(=O)Nc1ccc(Br)cc1` (centres unmarked) [Compound 1, 2-((4-bromophenylcarbamoyl)methoxy)-N-((tetrahydrofuran-2-yl)methyl)-N-methylbenzamide], the AC50 in assay [1] was less than 10 µM. Moreover, the EC50 in assay [2] was less than 10 µM.

Compound `O=C(Nc1ccc(Br)cc1)c1cc2cccc(C(=O)NCC3CCCO3)c2o1` (centres unmarked) [Compound 3, N2-(4-bromophenyl)-N7-((tetrahydrofuran-2-yl)methyl)benzofuran-2,7-dicarboxamide] had a concentration at half-maximal activity (AC50) in assay [1] of less than 10 µM. Moreover, in assay [2], the EC50 is less than 10 µM.

The compound `COc1ccc(NC(=O)c2cc3cccc(C(=O)NCC4CCCO4)c3o2)cc1` (centres unmarked) [Compound 5, N7-((tetrahydrofuran-2-yl)methyl)-N2-(4-methoxyphenyl)benzofuran-2,7-dicarboxamide] returned an AC50 in assay [1] of less than 10 µM. This compound displayed an EC50 in assay [2] of less than 10 µM.

On to `COc1c(C(=O)Nc2ccc(Br)cc2)oc2c(C(=O)NCC3CCCO3)cccc12` (centres unmarked) [Compound 6, N2-(4-bromophenyl)-N7-((tetrahydrofuran-2-yl)methyl)-3-methoxybenzofuran-2,7-dicarboxamide], for which the AC50 in assay [1] was less than 10 µM. Also, in assay [2], the EC50 was less than 10 µM.

Regarding `COc1ccc(NC(=O)C(C)(C)Oc2ccccc2C(=O)N2CCOCC2)cc1` [Compound 7], the AC50 in assay [1] was less than 10 µM. In assay [2], this compound came in with an EC50 of less than 10 µM.

In assay [1], `CN(C)Cc1ccc(NC(=O)c2nc3cccc(C(=O)NCC4CCCO4)c3o2)cc1` (centres unmarked) [Compound 9, N2-(4-((dimethylamino)methyl)phenyl)-N7-((tetrahydrofuran-2-yl)methyl)benzo[d]oxazole-2,7-dicarboxamide] showed a half-maximal activity concentration (AC50) of less than 10 µM. The compound further gave an EC50 in assay [2] of less than 10 µM.

Compound `COc1ccc(NC(=O)Cc2nnc(NCC3CCCO3)c3ccccc23)cc1` (centres unmarked) [Compound 11, 2-(1-((tetrahydrofuran-2-yl)methylamino)phthalazin-4-yl)-N-(4-methoxyphenyl)acetamide] yielded a concentration at half-maximal activity (AC50) in assay [1] of less than 10 µM. In assay [2], this compound returned an EC50 of less than 10 µM.

With `COc1ccc2[nH]c(COc3ccccc3C(=O)NCC3CCCO3)nc2c1` (centres unmarked) [Compound 12, 2-((5-methoxy-1H-benzo[d]imidazol-2-yl)methoxy)-N-((tetrahydrofuran-2-yl)methyl)benzamide], in assay [1], the AC50 is less than 10 µM. The EC50 in assay [2] was less than 10 µM.

In turn, `COc1ccc(NC(=O)c2nc3cc(F)cc(C(=O)NCC4CCO4)c3o2)cc1` (centres unmarked) [Compound 13, 5-fluoro-N2-(4-methoxyphenyl)-N7-(oxetan-2-ylmethyl)-1,3-benzoxazole-2,7-dicarboxamide] came in with a concentration at half-maximal activity (AC50) in assay [1] of less than 10 µM. Further, the concentration giving a half-maximal response (EC50) in assay [2] was less than 10 µM.

On to `COc1ccc(NC(=O)c2nc3cc(F)cc(C(=O)NCC4CCO4)c3o2)cc1F` (centres unmarked) [Compound 14, 5-fluoro-N2-(3-fluoro-4-methoxy-phenyl)-N7-(oxetan-2-ylmethyl)-1,3-benzoxazole-2,7-dicarboxamide], for which the concentration at half-maximal activity (AC50) in assay [1] was less than 10 µM.

`COc1ccc(NC(=O)c2nc3c(F)ccc(C(=O)NCC4CCO4)c3o2)cc1` (centres unmarked) [Compound 15, 4-fluoro-N2-(4-methoxyphenyl)-N7-(oxetan-2-ylmethyl)-1,3-benzoxazole-2,7-dicarboxamide] came in with an AC50 in assay [1] of less than 10 µM.

The compound `O=C(Nc1ccc(CN2CCOCC2)cc1)c1nc2cccc(C(=O)NCC3CCO3)c2o1` (centres unmarked) [Compound 16, N2-[4-(morpholinomethyl)phenyl]-N7-(oxetan-2-ylmethyl)-1,3-benzoxazole-2,7-dicarboxamide] registered an AC50 in assay [1] of less than 10 µM.

In the case of `CC(C)(Oc1ccccc1C(=O)NCC1CCO1)C(=O)NC1CCN(CC(F)F)CC1` (centres unmarked) [Compound 17, 2-[2-[[1-(2,2-difluoroethyl)-4-piperidyl]amino]-1,1-dimethyl-2-oxo-ethoxy]-N-(oxetan-2-ylmethyl)benzamide], the half-maximal activity concentration (AC50) in assay [1] is less than 10 µM. In assay [2], this compound gave a concentration for a half-maximal effect (EC50) of less than 10 µM.

`CC(C)(Oc1ccccc1C(=O)NCC1CCO1)C(=O)NC1CCN(C2COC2)CC1` (centres unmarked) [Compound 18, 2-[1,1-dimethyl-2-[[1-(oxetan-3-yl)-4-piperidyl]amino]-2-oxo-ethoxy]-N-(oxetan-2-ylmethyl)benzamide] showed an AC50 in assay [1] of less than 10 µM. The compound further registered a concentration for a half-maximal effect (EC50) in assay [2] of less than 10 µM.

As to `O=C(NC1CCOCC1)c1nc2cc(F)cc(C(=O)NCC3CCO3)c2o1` (centres unmarked) [Compound 19, 5-fluoro-N2-(tetrahydro-2H-pyran-4-yl)-N7-((oxetan-2-yl)methyl)benzo[d]oxazole-2,7-dicarboxamide], in assay [1], the AC50 was less than 10 µM. This compound also displayed an EC50 in assay [2] of less than 10 µM.

On to `Cc1cc(NC(=O)c2nc3cc(F)cc(C(=O)NCC4CCO4)c3o2)ccn1` (centres unmarked) [Compound 20, 5-fluoro-N2-(2-methylpyridin-4-yl)-N7-((oxetan-2-yl)methyl)benzo[d]oxazole-2,7-dicarboxamide], for which the AC50 in assay [1] was less than 10 µM. In assay [2], this compound displayed an EC50 of less than 10 µM.

`O=C(Nc1ccc(Cl)cc1)c1nc2cc(F)cc(C(=O)NCC3CCO3)c2o1` (centres unmarked) [Compound 21, N2-(4-chlorophenyl)-5-fluoro-N7-((oxetan-2-yl)methyl)benzo[d]oxazole-2,7-dicarboxamide] yielded an AC50 in assay [1] of less than 10 µM. In addition, the EC50 in assay [2] was less than 10 µM.

`O=C(Nc1ccc(OC(F)(F)F)cc1)c1nc2cc(F)cc(C(=O)NCC3CCO3)c2o1` (centres unmarked) [Compound 22, 5-fluoro-N7-((oxetan-2-yl)methyl)-N2-(4-(trifluoromethoxy)phenyl)benzo[d]oxazole-2,7-dicarboxamide] yielded an AC50 in assay [1] of less than 10 µM. The compound further yielded an EC50 in assay [2] of less than 10 µM.

`CN(CC1CCO1)C(=O)c1cc(F)ccc1OC(C)(C)C(=O)NC1CCOCC1` (centres unmarked) [Compound 23, 2-(2-(tetrahydro-2H-pyran-4-ylcarbamoyl)propan-2-yloxy)-5-fluoro-N-methyl-N-((oxetan-2-yl)methyl)benzamide]: the AC50 in assay [1] is less than 10 µM. In addition, the concentration giving a half-maximal response (EC50) in assay [2] is less than 10 µM.

Compound `CN1CCC(NC(=O)C(C)(C)Oc2ccc(F)cc2C(=O)NCC2CCO2)C(F)(F)C1` (centres unmarked) [Compound 24, 2-(2-(3,3-difluoro-1-methylpiperidin-4-ylcarbamoyl)propan-2-yloxy)-5-fluoro-N-((oxetan-2-yl)methyl)benzamide] came in with a concentration at half-maximal activity (AC50) in assay [1] of less than 10 µM. In assay [2], this compound returned an EC50 of less than 10 µM.

In assay [1], `O=C(NCC1CCO1)c1cc(F)ccc1OCc1nc2cc(Cl)ccc2[nH]1` (centres unmarked) [Compound 25, 2-((6-chloro-1H-benzo[d]imidazol-2-yl)methoxy)-5-fluoro-N-((oxetan-2-yl)methyl)benzamide] returned a concentration at half-maximal activity (AC50) of less than 10 µM. The compound also returned an EC50 in assay [2] of less than 10 µM.

The compound `CC(C)(Oc1ccc(F)cc1C(=O)NCC1CCO1)C(=O)NCCN1CCOCC1` (centres unmarked) [Compound 27, 2-[1,1-dimethyl-2-(2-morpholinoethylamino)-2-oxo-ethoxy]-5-fluoro-N-(oxetan-2-ylmethyl)benzamide] registered an AC50 in assay [1] of less than 10 µM. In assay [2], the EC50 is less than 10 µM.

In assay [1], `O=C(NC1CCC(F)(F)CC1)c1nc2cc(F)cc(C(=O)NCC3CCO3)c2o1` (centres unmarked) [Compound 28, N2-(4,4-difluorocyclohexyl)-5-fluoro-N7-(oxetan-2-ylmethyl)benzo[d]oxazole-2,7-dicarboxamide] displayed an AC50 of 10 to 100 µM. Also, the half-maximal effective concentration (EC50) in assay [2] is less than 10 µM.

In turn, `O=C(NC1CCN(CC(F)(F)F)CC1)c1nc2cc(F)cc(C(=O)NCC3CCO3)c2o1` (centres unmarked) [Compound 29, 5-fluoro-N7-(oxetan-2-ylmethyl)-N2-(1-(2,2,2-trifluoroethyl)piperidin-4-yl)benzo[d]oxazole-2,7-dicarboxamide] gave a half-maximal activity concentration (AC50) in assay [1] of 10 to 100 µM.

`COc1ccc(NC(=O)N2Cc3cccc(C(=O)NCC4CCO4)c3C2)cc1` (centres unmarked) [Compound 30, N2-(4-methoxyphenyl)-N4-((oxetan-2-yl)methyl)isoindoline-2,4-dicarboxamide] registered a half-maximal activity concentration (AC50) in assay [1] of less than 10 µM. The concentration for a half-maximal effect (EC50) in assay [2] was less than 10 µM.

In assay [1], `CC(C)(Oc1ccc(F)cc1C(=O)NCC1CCO1)C(=O)Nc1ccc(OC(F)F)cc1` (centres unmarked) [Compound 31, 2-((1-((4-(difluoromethoxy)phenyl)amino)-2-methyl-1-oxopropan-2-yl)oxy)-5-fluoro-N-(oxetan-2-ylmethyl)benzamide] showed an AC50 of less than 10 µM.
